The values that follow come from patent US20110112164A1, “NOVEL POLYMORPHS AND PROCESSES FOR THEIR PREPARATION” (Generics (UK) Limited, priority 2008, published 2011).

Where two headings read alike, the source gives them in different places.

For data set [1] the following is noted: prior art form of WO 03/016305; cited from earlier work.
The conditions of data set [2]: prior art form of WO 03/016305; cited from earlier work. The source holds these as a separate data set.
Data set [3] is described as follows: Stability (thermodynamic / polymorphic) of crystalline forms of sunitinib malate. Format: physicochemical. The conditions noted are these: crystalline solid form.
Data set [4] in a line: Hygroscopicity of crystalline forms of sunitinib malate. The conditions noted are these: crystalline solid form. In kind it is physicochemical.

Consider `CCN(CC)CCNC(=O)c1c(C)[nH]c(/C=C2\C(=O)Nc3ccc(F)cc32)c1C.O=C(O)CC(O)C(=O)O` [Form II, (Z)—N-[2-(diethylamino)ethyl]-5-(5-fluoro-2-oxo-2,3-dihydro-1H-indole-3-ylidenemethyl)-2,4-dimethyl-1H-pyrrole-3-carboxamide 2(S)-hydroxybutanedioic acid], for which, in data set [1], the polymorphic conversion entry is on record as “readily convert to form I” and the thermodynamic stability result is “thermodynamically unstable”. Also, in data set [2], the hygroscopicity result is listed as “hygroscopic”.

As to `CCN(CC)CCNC(=O)c1c(C)[nH]c(/C=C2\C(=O)Nc3ccc(F)cc32)c1C.O=C(O)CC(O)C(=O)O` [form III, (Z)—N-[2-(diethylamino)ethyl]-5-(5-fluoro-2-oxo-2,3-dihydro-1H-indole-3-ylidenemethyl)-2,4-dimethyl-1H-pyrrole-3-carboxamide 2(S)-hydroxybutanedioic acid], in data set [3], the stability entry is on record as “stable”. In addition, the hygroscopicity result in data set [4] is “non-hygroscopic”.
